Assay results: patent US5525626A (priority 1989, dated 1996)

How the values were obtained:
Assay in all cases: 3H-thymidine assay
Format in all cases: cell-based
[1] = system: GV-1 prostate carcinoma cells
Daudi leukemic cells = details: Homo sapiens
A-375 melanoma cells = details: Homo sapiens, A-375
HCV cells = system: HCV cells
[2] = system: Tp 242 MG glioblastoma cells; details: Homo sapiens
CAKI-2 cells = details: Homo sapiens, CAKI-2
Procedure: (§1) The cell lines were cultivated as indicated in Example 1.
(§2) The antiproliferative effect of the 1,2-benzopyrone derivatives according to the invention on the tumor cell lines in each case was shown with the help of the ^3 H-thymidine insertion and with reference to growth curves.
In a 24-well-plate, in each case 10^4 cells of the line to be investigated were inoculated per well. Approximately 48 hours later the cells were half-confluent; the medium was then changed and replaced by a medium containing the active substance in question (cf Table 3). […] Subsequently the cultures were washed twice with ice-cold PBS and the high-molecular-weight ^3 H-radioactivity was precipitated with 5% trichloroacetic acid for one hour at 4° C. After the washing of the cells in PBS the ^3 H-radioactivity was solubilized with 0.3M NaOH and measured in the counter. The growth-inhibition was determined by comparing the thymidine insertion of the cells treated with active substance with untreated cells.
(§3) The active substance concentration in each case was so chosen that ^3 H-thymidine insertion was 50% inhibited. The active substance concentrations used under this aspect for the active substances and cell lines in each case are given in table 4 below in μM/ml, […]

K-562 leukemic cells = details: Homo sapiens, K562
Procedure: as §1, §2
(§4) In a 24-well-plate, in each case 10^4 cells of the line to be investigated were inoculated per well. Approximately 48 hours later the cells were half-confluent; the medium was then changed and replaced by a medium containing the active substance in question (cf Table 3). After a further 48 hours 0.25 μCi ^3 H-thymidine (Ammersham) was added to each well and the cells were incubated for a further 24 hours. Subsequently the cultures were washed twice with ice-cold PBS and the high-molecular-weight ^3 H-radioactivity was precipitated with 5% trichloroacetic acid for one hour at 4° C. After the washing of the cells in PBS the ^3 H-radioactivity was solubilized with 0.3M NaOH and measured in the counter. The growth-inhibition was determined by comparing the thymidine insertion of the cells treated with active substance with untreated cells.
as §3

[3] = system: MCF-7 breast cancer cells; details: Homo sapiens, MCF7
Procedure: as §1, §2, §4, §3

[4] = system: Tp 483 MG glioblastoma cells
[5] = 1 μM/ml, read-out: 3H-thymidine tracer (%) of control
[6] = 2 μM/ml, read-out: 3H-thymidine tracer (%) of control
[7] = 4 μM/ml, read-out: 3H-thymidine tracer (%) of control
[8] = 8 μM/ml, read-out: 3H-thymidine tracer (%) of control
[9] = 16 μM/ml, read-out: 3H-thymidine tracer (%) of control
[10] = 25 μM/ml, read-out: 3H-thymidine tracer (%) of control
[11] = 50 μM/ml, read-out: 3H-thymidine tracer (%) of control
[12] = 100 μM/ml, read-out: 3H-thymidine tracer (%) of control
[13] = 250 μM/ml, read-out: 3H-thymidine tracer (%) of control
[14] = 500 μM/ml, read-out: 3H-thymidine tracer (%) of control
[15] = Table 4, read-out: active substance concentration at which 3H-thymidine insertion was 50% inhibited
[16] = Table 4, *: maximum usable dosage, no 50% inhibition, read-out: active substance concentration at which 3H-thymidine insertion was 50% inhibited
[17] = read-out: 3H-thymidine tracer (%) of control
[18] = 1 μM/ml, read-out: 3H-thymidine insertion (%) of control
[19] = 2 μM/ml, read-out: 3H-thymidine insertion (%) of control
[20] = 4 μM/ml, read-out: 3H-thymidine insertion (%) of control
[21] = 8 μM/ml, read-out: 3H-thymidine insertion (%) of control
[22] = 16 μM/ml, read-out: 3H-thymidine insertion (%) of control
[23] = 25 μM/ml, read-out: 3H-thymidine insertion (%) of control
[24] = 50 μM/ml, read-out: 3H-thymidine insertion (%) of control
[25] = 100 μM/ml, read-out: 3H-thymidine insertion (%) of control
[26] = 250 μM/ml, read-out: 3H-thymidine insertion (%) of control
[27] = 500 μM/ml, read-out: 3H-thymidine insertion (%) of control

**Q.** How did the activity at 1 µM [1, 5] turn out when `O=c1ccc2cc(O)c(O)cc2o1` [Esculetin, 6,7-hydroxy-1,2-benzopyrone] was run?
**A.** 97%

**Q.** What about the activity at 2 µM [1, 6] of the same compound?
**A.** 93%

**Q.** What about the activity at 4 µM [1, 7] of the same compound?
**A.** 88%

**Q.** What about the activity at 8 µM [1, 8] of the same compound?
**A.** 84%

**Q.** What about the activity at 16 µM [1, 9] of the same compound?
**A.** 78%

**Q.** And the activity at 25 µM [1, 10]?
**A.** 75%

**Q.** And the activity at 50 µM [1, 11]?
**A.** 63%

**Q.** What about the activity at 100 µM [1, 12] of the same compound?
**A.** 60%

**Q.** And the activity at 250 µM [1, 13]?
**A.** 58%

**Q.** And the activity at 500 µM [1, 14]?
**A.** 50%

**Q.** And the IC50 [1, 15]?
**A.** 500 µM

**Q.** And the activity at 1 µM (Daudi leukemic cells; [5])?
**A.** 94%

**Q.** What about the activity at 2 µM (Daudi leukemic cells; [6]) of the same compound?
**A.** 96%

**Q.** What about the activity at 4 µM (Daudi leukemic cells; [7]) of the same compound?
**A.** 83%

**Q.** What about the activity at 8 µM (Daudi leukemic cells; [8]) of the same compound?
**A.** 75%

**Q.** What about the activity at 16 µM (Daudi leukemic cells; [9]) of the same compound?
**A.** 69%

**Q.** What about the activity at 25 µM (Daudi leukemic cells; [10]) of the same compound?
**A.** 63%

**Q.** And the activity at 50 µM (Daudi leukemic cells; [11])?
**A.** 61%

**Q.** And the activity at 100 µM (Daudi leukemic cells; [12])?
**A.** 57%

**Q.** And the activity at 250 µM (Daudi leukemic cells; [13])?
**A.** 54%

**Q.** What about the activity at 500 µM (Daudi leukemic cells; [14]) of the same compound?
**A.** 39%

**Q.** And the IC50 (Daudi leukemic cells; [15])?
**A.** 250 µM

**Q.** And the activity at 1 µM (A-375 melanoma cells; [5])?
**A.** 98%

**Q.** And the activity at 2 µM (A-375 melanoma cells; [6])?
**A.** 91%

**Q.** And the activity at 4 µM (A-375 melanoma cells; [7])?
**A.** 89%

**Q.** And the activity at 8 µM (A-375 melanoma cells; [8])?
**A.** 84%

**Q.** And the activity at 16 µM (A-375 melanoma cells; [9])?
**A.** 75%

**Q.** And the activity at 25 µM (A-375 melanoma cells; [10])?
**A.** 70%

**Q.** And the activity at 50 µM (A-375 melanoma cells; [11])?
**A.** 65%

**Q.** What about the activity at 100 µM (A-375 melanoma cells; [12]) of the same compound?
**A.** 63%

**Q.** What about the activity at 250 µM (A-375 melanoma cells; [13]) of the same compound?
**A.** 59%

**Q.** And the activity at 500 µM (A-375 melanoma cells; [14])?
**A.** 55%

**Q.** And the IC50 (A-375 melanoma cells; [16])?
**A.** > 500 µM

**Q.** What about the activity at 1 µM (HCV cells; [17]) of the same compound?
**A.** 99%

**Q.** And the activity at 2 µM (HCV cells; [17])?
**A.** 94%

**Q.** And the activity at 4 µM (HCV cells; [17])?
**A.** 87%

**Q.** And the activity at 8 µM (HCV cells; [17])?
**A.** 83%

**Q.** What about the activity at 16 µM (HCV cells; [17]) of the same compound?
**A.** 78%

**Q.** What about the activity at 25 µM (HCV cells; [17]) of the same compound?
**A.** 76%

**Q.** And the activity at 50 µM (HCV cells; [17])?
**A.** 71%

**Q.** What about the activity at 250 µM (HCV cells; [17]) of the same compound?
**A.** 64%

**Q.** And the activity at 500 µM (HCV cells; [17])?
**A.** 62%

**Q.** What about the IC50 (HCV cells; read-out: active substance concentration at which 3H-thymidine insertion was 50% inhibited) of the same compound?
**A.** > 500 µM

**Q.** And the activity at 1 µM [2, 18]?
**A.** 96%

**Q.** And the activity at 2 µM [2, 19]?
**A.** 96%

**Q.** And the activity at 4 µM [2, 20]?
**A.** 89%

**Q.** What about the activity at 8 µM [2, 21] of the same compound?
**A.** 87%

**Q.** What about the activity at 16 µM [2, 22] of the same compound?
**A.** 75%

**Q.** What about the activity at 25 µM [2, 23] of the same compound?
**A.** 72%

**Q.** What about the activity at 50 µM [2, 24] of the same compound?
**A.** 60%

**Q.** And the activity at 100 µM [2, 25]?
**A.** 44%

**Q.** What about the activity at 250 µM [2, 26] of the same compound?
**A.** 32%

**Q.** And the activity at 500 µM [2, 27]?
**A.** 21%

**Q.** And the IC50 [2, 15]?
**A.** 75 µM

**Q.** And the activity at 1 µM (CAKI-2 cells; [5])?
**A.** 98%

**Q.** And the activity at 2 µM (CAKI-2 cells; [6])?
**A.** 94%

**Q.** And the activity at 4 µM (CAKI-2 cells; [7])?
**A.** 90%

**Q.** And the activity at 8 µM (CAKI-2 cells; [8])?
**A.** 87%

**Q.** What about the activity at 16 µM (CAKI-2 cells; [9]) of the same compound?
**A.** 82%

**Q.** What about the activity at 25 µM (CAKI-2 cells; [10]) of the same compound?
**A.** 69%

**Q.** What about the activity at 50 µM (CAKI-2 cells; [11]) of the same compound?
**A.** 65%

**Q.** And the activity at 100 µM (CAKI-2 cells; [12])?
**A.** 54%

**Q.** What about the activity at 150 µM (CAKI-2 cells; 150 μM/ml, read-out: 3H-thymidine tracer (%) of control) of the same compound?
**A.** 53%

**Q.** And the activity at 500 µM (CAKI-2 cells; [14])?
**A.** 50%

**Q.** And the IC50 (CAKI-2 cells; [16])?
**A.** 500 µM

**Q.** What about the activity at 1 µM (K-562 leukemic cells; [5]) of the same compound?
**A.** 97%

**Q.** And the activity at 2 µM (K-562 leukemic cells; [6])?
**A.** 95%

**Q.** What about the activity at 4 µM (K-562 leukemic cells; [7]) of the same compound?
**A.** 84%

**Q.** What about the activity at 8 µM (K-562 leukemic cells; [8]) of the same compound?
**A.** 77%

**Q.** What about the activity at 16 µM (K-562 leukemic cells; [9]) of the same compound?
**A.** 62%

**Q.** And the activity at 25 µM (K-562 leukemic cells; [10])?
**A.** 58%

**Q.** What about the activity at 50 µM (K-562 leukemic cells; [11]) of the same compound?
**A.** 50%

**Q.** What about the activity at 100 µM (K-562 leukemic cells; [12]) of the same compound?
**A.** 47%

**Q.** And the activity at 250 µM (K-562 leukemic cells; [13])?
**A.** 44%

**Q.** What about the activity at 500 µM (K-562 leukemic cells; [14]) of the same compound?
**A.** 31%

**Q.** And the IC50 (K-562 leukemic cells; [15])?
**A.** 50 µM

**Q.** What about the activity at 1 µM [3, 5] of the same compound?
**A.** 100%

**Q.** What about the activity at 2 µM [3, 6] of the same compound?
**A.** 98%

**Q.** What about the activity at 4 µM [3, 7] of the same compound?
**A.** 92%

**Q.** And the activity at 8 µM [3, 8]?
**A.** 85%

**Q.** What about the activity at 16 µM [3, 9] of the same compound?
**A.** 76%

**Q.** What about the activity at 25 µM [3, 10] of the same compound?
**A.** 69%

**Q.** What about the activity at 50 µM [3, 11] of the same compound?
**A.** 64%

**Q.** And the activity at 100 µM [3, 12]?
**A.** 58%

**Q.** And the activity at 250 µM [3, 13]?
**A.** 50%

**Q.** And the activity at 500 µM [3, 14]?
**A.** 42%

**Q.** And the IC50 [3, 16]?
**A.** 250 µM

**Q.** And the activity at 1 µM [4, 18]?
**A.** 98%

**Q.** What about the activity at 2 µM [4, 19] of the same compound?
**A.** 94%

**Q.** What about the activity at 4 µM [4, 20] of the same compound?
**A.** 85%

**Q.** What about the activity at 8 µM [4, 21] of the same compound?
**A.** 77%

**Q.** What about the activity at 16 µM [4, 22] of the same compound?
**A.** 73%

**Q.** And the activity at 25 µM [4, 23]?
**A.** 69%

**Q.** And the activity at 50 µM [4, 24]?
**A.** 62%

**Q.** And the activity at 100 µM [4, 25]?
**A.** 55%

**Q.** And the activity at 250 µM [4, 26]?
**A.** 39%

**Q.** And the activity at 500 µM [4, 27]?
**A.** 28%

**Q.** And the IC50 [4, 15]?
**A.** 150 µM
